Reference: ChEMBL document CHEMBL3352227, “Synthesis, antimycobacterial and antibacterial evaluation of l-[(1R, 2S)-2-fluorocyclopropyl]fluoroquinolone derivatives containing an oxime functional moiety” (Eur J Med Chem, 2014)
Values after ≈ are worked out from the molar mass of the structure shown.

System: Klebsiella pneumoniae
Assay: Antibacterial activity against extended-spectrum beta-lactamase producin Klebsiella pneumoniae 12-4 after 18 to 24 hrs by standard twofold serial dilution method
Type: functional

**Q.** How did the MIC turn out when `NCC1CN(c2c(F)cc3c(=O)c(C(=O)O)cn([C@@H]4C[C@@H]4F)c3c2Cl)C/C1=N/OCc1ccccc1` (some centres not stated) was run?
**A.** 32 µg/mL (≈ 61.9 µM)

System: Pseudomonas aeruginosa
Assay: Antibacterial activity against Pseudomonas aeruginosa 12-12 after 18 to 24 hrs by standard twofold serial dilution method
Type: functional

**Q.** Which MIC does the source give for `NCC1CN(c2c(F)cc3c(=O)c(C(=O)O)cn([C@@H]4C[C@@H]4F)c3c2Cl)C/C1=N/OCc1ccccc1` (some centres not stated) here?
**A.** 8 µg/mL (≈ 15.5 µM)

System: Klebsiella pneumoniae
Assay: Antibacterial activity against extended-spectrum beta-lactamase producin Klebsiella pneumoniae 12-7 after 18 to 24 hrs by standard twofold serial dilution method
Type: functional

**Q.** `NCC1CN(c2c(F)cc3c(=O)c(C(=O)O)cn([C@@H]4C[C@@H]4F)c3c2Cl)C/C1=N/OCc1ccccc1` (some centres not stated) was tested. Which MIC did it give?
**A.** 16 µg/mL (≈ 31 µM)

System: Staphylococcus aureus
Assay: Antibacterial activity against methicillin-resistant Staphylococcus aureus 12-4 after 18 to 24 hrs by standard twofold serial dilution method
Type: functional

**Q.** How did the MIC turn out when `NCC1CN(c2c(F)cc3c(=O)c(C(=O)O)cn([C@@H]4C[C@@H]4F)c3c2Cl)C/C1=N/OCc1ccccc1` (some centres not stated) was run?
**A.** 0.5 µg/mL (≈ 0.967 µM)

System: Mycobacterium tuberculosis
Assay: Antimycobacterial activity against Mycobacterium tuberculosis H37Rv ATCC 27294 by MABA method
Type: functional

**Q.** With `NCC1CN(c2c(F)cc3c(=O)c(C(=O)O)cn([C@@H]4C[C@@H]4F)c3c2Cl)C/C1=N/OCc1ccccc1` (some centres not stated) as the molecule, how does the MIC read?
**A.** 16 µg/mL (≈ 31 µM)

System: Klebsiella pneumoniae
Assay: Antibacterial activity against Klebsiella pneumoniae 12-1 after 18 to 24 hrs by standard twofold serial dilution method
Type: functional

**Q.** With `NCC1CN(c2c(F)cc3c(=O)c(C(=O)O)cn([C@@H]4C[C@@H]4F)c3c2Cl)C/C1=N/OCc1ccccc1` (some centres not stated) as the molecule, how does the MIC read?
**A.** 2 µg/mL (≈ 3.87 µM)

System: Klebsiella pneumoniae
Assay: Antibacterial activity against extended-spectrum beta-lactamase producin Klebsiella pneumoniae 12-3 after 18 to 24 hrs by standard twofold serial dilution method
Type: functional

**Q.** Which MIC does the source give for `NCC1CN(c2c(F)cc3c(=O)c(C(=O)O)cn([C@@H]4C[C@@H]4F)c3c2Cl)C/C1=N/OCc1ccccc1` (some centres not stated) here?
**A.** > 128 µg/mL

System: Escherichia coli
Assay: Antibacterial activity against extended-spectrum beta-lactamase producing Escherichia coli 12-3 after 18 to 24 hrs by standard twofold serial dilution method
Type: functional

**Q.** With `NCC1CN(c2c(F)cc3c(=O)c(C(=O)O)cn([C@@H]4C[C@@H]4F)c3c2Cl)C/C1=N/OCc1ccccc1` (some centres not stated) as the molecule, how does the MIC read?
**A.** 32 µg/mL (≈ 61.9 µM)

System: Staphylococcus aureus
Assay: Antibacterial activity against methicillin-sensitive Staphylococcus aureus 12-1 after 18 to 24 hrs by standard twofold serial dilution method
Type: functional

**Q.** How did the MIC turn out when `NCC1CN(c2c(F)cc3c(=O)c(C(=O)O)cn([C@@H]4C[C@@H]4F)c3c2Cl)C/C1=N/OCc1ccccc1` (some centres not stated) was run?
**A.** 0.5 µg/mL (≈ 0.967 µM)

System: Staphylococcus aureus
Assay: Antibacterial activity against methicillin-resistant Staphylococcus aureus 12-5 after 18 to 24 hrs by standard twofold serial dilution method
Type: functional

**Q.** For `NCC1CN(c2c(F)cc3c(=O)c(C(=O)O)cn([C@@H]4C[C@@H]4F)c3c2Cl)C/C1=N/OCc1ccccc1` (some centres not stated), which MIC is on record?
**A.** 0.5 µg/mL (≈ 0.967 µM)

System: Staphylococcus aureus
Assay: Antibacterial activity against methicillin-sensitive Staphylococcus aureus 12-4 after 18 to 24 hrs by standard twofold serial dilution method
Type: functional

**Q.** For `NCC1CN(c2c(F)cc3c(=O)c(C(=O)O)cn([C@@H]4C[C@@H]4F)c3c2Cl)C/C1=N/OCc1ccccc1` (some centres not stated), which MIC is on record?
**A.** 0.25 µg/mL (≈ 0.484 µM)

System: Escherichia coli
Assay: Antibacterial activity against Escherichia coli 12-1 after 18 to 24 hrs by standard twofold serial dilution method
Type: functional

**Q.** `NCC1CN(c2c(F)cc3c(=O)c(C(=O)O)cn([C@@H]4C[C@@H]4F)c3c2Cl)C/C1=N/OCc1ccccc1` (some centres not stated) was tested. Which MIC did it give?
**A.** 32 µg/mL (≈ 61.9 µM)

System: Staphylococcus epidermidis
Assay: Antibacterial activity against methicillin-sensitive Staphylococcus epidermidis 12-6 after 18 to 24 hrs by standard twofold serial dilution method
Type: functional

**Q.** With `NCC1CN(c2c(F)cc3c(=O)c(C(=O)O)cn([C@@H]4C[C@@H]4F)c3c2Cl)C/C1=N/OCc1ccccc1` (some centres not stated) as the molecule, how does the MIC read?
**A.** 0.5 µg/mL (≈ 0.967 µM)

System: Staphylococcus aureus
Assay: Antibacterial activity against methicillin-sensitive Staphylococcus aureus 12-5 after 18 to 24 hrs by standard twofold serial dilution method
Type: functional

**Q.** `NCC1CN(c2c(F)cc3c(=O)c(C(=O)O)cn([C@@H]4C[C@@H]4F)c3c2Cl)C/C1=N/OCc1ccccc1` (some centres not stated) was tested. Which MIC did it give?
**A.** 0.5 µg/mL (≈ 0.967 µM)

System: Staphylococcus epidermidis
Assay: Antibacterial activity against methicillin-sensitive Staphylococcus epidermidis 12-1 after 18 to 24 hrs by standard twofold serial dilution method
Type: functional

**Q.** For `NCC1CN(c2c(F)cc3c(=O)c(C(=O)O)cn([C@@H]4C[C@@H]4F)c3c2Cl)C/C1=N/OCc1ccccc1` (some centres not stated), which MIC is on record?
**A.** 0.5 µg/mL (≈ 0.967 µM)

System: Klebsiella pneumoniae
Assay: Antibacterial activity against Klebsiella pneumoniae 12-4 after 18 to 24 hrs by standard twofold serial dilution method
Type: functional

**Q.** How did the MIC turn out when `NCC1CN(c2c(F)cc3c(=O)c(C(=O)O)cn([C@@H]4C[C@@H]4F)c3c2Cl)C/C1=N/OCc1ccccc1` (some centres not stated) was run?
**A.** 2 µg/mL (≈ 3.87 µM)

System: Klebsiella pneumoniae
Assay: Antibacterial activity against Klebsiella pneumoniae 12-2 after 18 to 24 hrs by standard twofold serial dilution method
Type: functional

**Q.** How did the MIC turn out when `NCC1CN(c2c(F)cc3c(=O)c(C(=O)O)cn([C@@H]4C[C@@H]4F)c3c2Cl)C/C1=N/OCc1ccccc1` (some centres not stated) was run?
**A.** 2 µg/mL (≈ 3.87 µM)

System: Pseudomonas aeruginosa
Assay: Antibacterial activity against Pseudomonas aeruginosa 12-14 after 18 to 24 hrs by standard twofold serial dilution method
Type: functional

**Q.** `NCC1CN(c2c(F)cc3c(=O)c(C(=O)O)cn([C@@H]4C[C@@H]4F)c3c2Cl)C/C1=N/OCc1ccccc1` (some centres not stated) was tested. Which MIC did it give?
**A.** 64 µg/mL (≈ 124 µM)

System: Staphylococcus epidermidis
Assay: Antibacterial activity against methicillin-sensitive Staphylococcus epidermidis 12-8 after 18 to 24 hrs by standard twofold serial dilution method
Type: functional

**Q.** With `NCC1CN(c2c(F)cc3c(=O)c(C(=O)O)cn([C@@H]4C[C@@H]4F)c3c2Cl)C/C1=N/OCc1ccccc1` (some centres not stated) as the molecule, how does the MIC read?
**A.** 64 µg/mL (≈ 124 µM)

System: Staphylococcus epidermidis
Assay: Antibacterial activity against methicillin-resistant Staphylococcus epidermidis 12-6 after 18 to 24 hrs by standard twofold serial dilution method
Type: functional

**Q.** With `NCC1CN(c2c(F)cc3c(=O)c(C(=O)O)cn([C@@H]4C[C@@H]4F)c3c2Cl)C/C1=N/OCc1ccccc1` (some centres not stated) as the molecule, how does the MIC read?
**A.** 64 µg/mL (≈ 124 µM)

System: Escherichia coli
Assay: Antibacterial activity against extended-spectrum beta-lactamase producing Escherichia coli 12-14 after 18 to 24 hrs by standard twofold serial dilution method
Type: functional

**Q.** `NCC1CN(c2c(F)cc3c(=O)c(C(=O)O)cn([C@@H]4C[C@@H]4F)c3c2Cl)C/C1=N/OCc1ccccc1` (some centres not stated) was tested. Which MIC did it give?
**A.** > 128 µg/mL

System: Staphylococcus epidermidis
Assay: Antibacterial activity against methicillin-sensitive Staphylococcus epidermidis 12-3 after 18 to 24 hrs by standard twofold serial dilution method
Type: functional

**Q.** How did the MIC turn out when `NCC1CN(c2c(F)cc3c(=O)c(C(=O)O)cn([C@@H]4C[C@@H]4F)c3c2Cl)C/C1=N/OCc1ccccc1` (some centres not stated) was run?
**A.** 1 µg/mL (≈ 1.93 µM)

System: Staphylococcus aureus
Assay: Antibacterial activity against methicillin-resistant Staphylococcus aureus 12-2 after 18 to 24 hrs by standard twofold serial dilution method
Type: functional

**Q.** Which MIC does the source give for `NCC1CN(c2c(F)cc3c(=O)c(C(=O)O)cn([C@@H]4C[C@@H]4F)c3c2Cl)C/C1=N/OCc1ccccc1` (some centres not stated) here?
**A.** 0.5 µg/mL (≈ 0.967 µM)

System: Escherichia coli
Assay: Antibacterial activity against Escherichia coli ATCC 25922 after 18 to 24 hrs by standard twofold serial dilution method
Type: functional

**Q.** With `NCC1CN(c2c(F)cc3c(=O)c(C(=O)O)cn([C@@H]4C[C@@H]4F)c3c2Cl)C/C1=N/OCc1ccccc1` (some centres not stated) as the molecule, how does the MIC read?
**A.** 0.5 µg/mL (≈ 0.967 µM)

System: Escherichia coli
Assay: Antibacterial activity against extended-spectrum beta-lactamase producing Escherichia coli 12-15 after 18 to 24 hrs by standard twofold serial dilution method
Type: functional

**Q.** Which MIC does the source give for `NCC1CN(c2c(F)cc3c(=O)c(C(=O)O)cn([C@@H]4C[C@@H]4F)c3c2Cl)C/C1=N/OCc1ccccc1` (some centres not stated) here?
**A.** > 128 µg/mL

System: Staphylococcus aureus
Assay: Antibacterial activity against Staphylococcus aureus ATCC 25923 after 18 to 24 hrs by standard twofold serial dilution method
Type: functional

**Q.** With `NCC1CN(c2c(F)cc3c(=O)c(C(=O)O)cn([C@@H]4C[C@@H]4F)c3c2Cl)C/C1=N/OCc1ccccc1` (some centres not stated) as the molecule, how does the MIC read?
**A.** 0.25 µg/mL (≈ 0.484 µM)

System: Streptococcus pneumoniae
Assay: Antibacterial activity against Streptococcus pneumoniae 12-18 after 18 to 24 hrs by standard twofold serial dilution method
Type: functional

**Q.** How did the MIC turn out when `NCC1CN(c2c(F)cc3c(=O)c(C(=O)O)cn([C@@H]4C[C@@H]4F)c3c2Cl)C/C1=N/OCc1ccccc1` (some centres not stated) was run?
**A.** 8 µg/mL (≈ 15.5 µM)

System: Klebsiella pneumoniae
Assay: Antibacterial activity against extended-spectrum beta-lactamase producin Klebsiella pneumoniae 12-14 after 18 to 24 hrs by standard twofold serial dilution method
Type: functional

**Q.** Which MIC does the source give for `NCC1CN(c2c(F)cc3c(=O)c(C(=O)O)cn([C@@H]4C[C@@H]4F)c3c2Cl)C/C1=N/OCc1ccccc1` (some centres not stated) here?
**A.** > 128 µg/mL

System: Escherichia coli
Assay: Antibacterial activity against extended-spectrum beta-lactamase producing Escherichia coli 12-2 after 18 to 24 hrs by standard twofold serial dilution method
Type: functional

**Q.** For `NCC1CN(c2c(F)cc3c(=O)c(C(=O)O)cn([C@@H]4C[C@@H]4F)c3c2Cl)C/C1=N/OCc1ccccc1` (some centres not stated), which MIC is on record?
**A.** > 128 µg/mL

System: Staphylococcus aureus
Assay: Antibacterial activity against methicillin-sensitive Staphylococcus aureus 12-2 after 18 to 24 hrs by standard twofold serial dilution method
Type: functional

**Q.** For `NCC1CN(c2c(F)cc3c(=O)c(C(=O)O)cn([C@@H]4C[C@@H]4F)c3c2Cl)C/C1=N/OCc1ccccc1` (some centres not stated), which MIC is on record?
**A.** 0.5 µg/mL (≈ 0.967 µM)

System: Staphylococcus epidermidis
Assay: Antibacterial activity against methicillin-resistant Staphylococcus epidermidis 12-1 after 18 to 24 hrs by standard twofold serial dilution method
Type: functional

**Q.** `NCC1CN(c2c(F)cc3c(=O)c(C(=O)O)cn([C@@H]4C[C@@H]4F)c3c2Cl)C/C1=N/OCc1ccccc1` (some centres not stated) was tested. Which MIC did it give?
**A.** 0.5 µg/mL (≈ 0.967 µM)

System: Streptococcus pneumoniae
Assay: Antibacterial activity against Streptococcus pneumoniae ATCC 49619 after 18 to 24 hrs by standard twofold serial dilution method
Type: functional

**Q.** Which MIC does the source give for `NCC1CN(c2c(F)cc3c(=O)c(C(=O)O)cn([C@@H]4C[C@@H]4F)c3c2Cl)C/C1=N/OCc1ccccc1` (some centres not stated) here?
**A.** 1 µg/mL (≈ 1.93 µM)
